In ChEMBL document CHEMBL4507277:

Key:
[1] = system: Tyrosine-protein kinase ABL1 (Homo sapiens), P00519 [F317L]; conditions: Compound concentration 1000.0 nM
[2] = system: Tyrosine-protein kinase ABL1 (Homo sapiens), P00519 [H396P]; conditions: Compound concentration 1000.0 nM
[3] = biological target: Activin receptor type-2B (Homo sapiens) (UniProt Q13705); conditions: Compound concentration 1000.0 nM
[4] = biological target: Protein-tyrosine kinase 6 (Homo sapiens) (UniProt Q13882); conditions: Compound concentration 1000.0 nM
[5] = biological target: Calcium/calmodulin-dependent protein kinase type 1B (Homo sapiens) (UniProt Q6P2M8); conditions: Compound concentration 1000.0 nM
[6] = biological target: Cyclin-dependent kinase 11B (Homo sapiens) (UniProt P21127); conditions: Compound concentration 1000.0 nM
[7] = biological target: Cyclin-dependent kinase 2 (Homo sapiens) (UniProt P24941); conditions: Compound concentration 1000.0 nM
[8] = biological target: Cyclin-dependent kinase 5 (Homo sapiens) (UniProt Q00535); conditions: Compound concentration 1000.0 nM
[9] = biological target: Cyclin-dependent kinase 7 (Homo sapiens) (UniProt P50613); conditions: Compound concentration 1000.0 nM
[10] = biological target: Cyclin-dependent kinase 8 (Homo sapiens) (UniProt P49336); conditions: Compound concentration 1000.0 nM
[11] = biological target: Serine/threonine-protein kinase Chk2 (Homo sapiens) (UniProt O96017); conditions: Compound concentration 1000.0 nM
[12] = biological target: Dual specificity protein kinase CLK1 (Homo sapiens) (UniProt P49759); conditions: Compound concentration 1000.0 nM
[13] = biological target: Dual specificity protein kinase CLK3 (Homo sapiens) (UniProt P49761); conditions: Compound concentration 1000.0 nM
[14] = biological target: Tyrosine-protein kinase CSK (Homo sapiens) (UniProt P41240); conditions: Compound concentration 1000.0 nM
[15] = biological target: Casein kinase II subunit alpha (Homo sapiens) (UniProt P68400); conditions: Compound concentration 1000.0 nM
[16] = biological target: Dual specificity tyrosine-phosphorylation-regulated kinase 2 (Homo sapiens) (UniProt Q92630); conditions: Compound concentration 1000.0 nM
[17] = system: Epidermal growth factor receptor (Homo sapiens), P00533 [UNDEFINED MUTATION]; conditions: Compound concentration 1000.0 nM
[18] = system: Epidermal growth factor receptor (Homo sapiens), P00533 [L858R]; conditions: Compound concentration 1000.0 nM
[19] = system: Epidermal growth factor receptor (Homo sapiens), P00533 [T790M]; conditions: Compound concentration 1000.0 nM
[20] = biological target: Mitogen-activated protein kinase 6 (Homo sapiens) (UniProt Q16659); conditions: Compound concentration 1000.0 nM
[21] = biological target: Focal adhesion kinase 1 (Homo sapiens) (UniProt Q05397); conditions: Compound concentration 1000.0 nM
[22] = biological target: Tyrosine-protein kinase Fer (Homo sapiens) (UniProt P16591); conditions: Compound concentration 1000.0 nM
[23] = biological target: Fibroblast growth factor receptor 2 (Homo sapiens) (UniProt P21802); conditions: Compound concentration 1000.0 nM
[24] = system: Receptor-type tyrosine-protein kinase FLT3 (Homo sapiens), P36888 [K663Q]; conditions: Compound concentration 1000.0 nM
[25] = biological target: Tyrosine-protein kinase JAK2 (Homo sapiens) (UniProt O60674); conditions: Compound concentration 1000.0 nM
[26] = biological target: Mitogen-activated protein kinase 10 (Homo sapiens) (UniProt P53779); conditions: Compound concentration 1000.0 nM
[27] = system: Leucine-rich repeat serine/threonine-protein kinase 2 (Homo sapiens), Q5S007 [G2019S]; conditions: Compound concentration 1000.0 nM
[28] = biological target: Mitogen-activated protein kinase kinase kinase 2 (Homo sapiens) (UniProt Q9Y2U5); conditions: Compound concentration 1000.0 nM
[29] = biological target: Serine/threonine-protein kinase 4 (Homo sapiens) (UniProt Q13043); conditions: Compound concentration 1000.0 nM
[30] = biological target: Myosin-IIIa (Homo sapiens) (UniProt Q8NEV4); conditions: Compound concentration 1000.0 nM
[31] = biological target: Myosin-IIIb (Homo sapiens) (UniProt Q8WXR4); conditions: Compound concentration 1000.0 nM
[32] = biological target: Serine/threonine-protein kinase Nek10 (Homo sapiens) (UniProt Q6ZWH5); conditions: Compound concentration 1000.0 nM
[33] = biological target: Serine/threonine-protein kinase NIM1 (Homo sapiens) (UniProt Q8IY84); conditions: Compound concentration 1000.0 nM
[34] = biological target: Cyclin-dependent kinase 14 (Homo sapiens) (UniProt O94921); conditions: Compound concentration 1000.0 nM
[35] = system: Phosphatidylinositol 4,5-bisphosphate 3-kinase catalytic subunit alpha isoform (Homo sapiens), P42336 [Q546K]; conditions: Compound concentration 1000.0 nM
[36] = system: Proto-oncogene tyrosine-protein kinase receptor Ret (Homo sapiens), P07949 [M918T]; conditions: Compound concentration 1000.0 nM
[37] = biological target: Serine/threonine-protein kinase SIK2 (Homo sapiens) (UniProt Q9H0K1); conditions: Compound concentration 1000.0 nM
[38] = biological target: SRSF protein kinase 1 (Homo sapiens) (UniProt Q96SB4); conditions: Compound concentration 1000.0 nM
[39] = biological target: Tyrosine-protein kinase SYK (Homo sapiens) (UniProt P43405); conditions: Compound concentration 1000.0 nM
[40] = biological target: Non-receptor tyrosine-protein kinase TNK1 (Homo sapiens) (UniProt Q13470); conditions: Compound concentration 1000.0 nM
[41] = biological target: Serine/threonine-protein kinase TNNI3K (Homo sapiens) (UniProt Q59H18); conditions: Compound concentration 1000.0 nM
[42] = biological target: Tyrosine-protein kinase receptor TYRO3 (Homo sapiens) (UniProt Q06418); conditions: Compound concentration 1000.0 nM
[43] = biological target: Phosphatidylinositol 3-kinase catalytic subunit type 3 (Homo sapiens) (UniProt Q8NEB9); conditions: Compound concentration 1000.0 nM
[44] = biological target: Serine/threonine-protein kinase 32C (Homo sapiens) (UniProt Q86UX6); conditions: Compound concentration 1000.0 nM
[45] = biological target: Tyrosine-protein kinase ZAP-70 (Homo sapiens) (UniProt P43403); conditions: Compound concentration 1000.0 nM
[46] = biological target: Histamine H3 receptor (Homo sapiens) (UniProt Q9Y5N1); conditions: Compound concentration 10.0 uM

Chain of Non-receptor tyrosine-protein kinase TNK1 (Homo sapiens) (Q13470 whole entry): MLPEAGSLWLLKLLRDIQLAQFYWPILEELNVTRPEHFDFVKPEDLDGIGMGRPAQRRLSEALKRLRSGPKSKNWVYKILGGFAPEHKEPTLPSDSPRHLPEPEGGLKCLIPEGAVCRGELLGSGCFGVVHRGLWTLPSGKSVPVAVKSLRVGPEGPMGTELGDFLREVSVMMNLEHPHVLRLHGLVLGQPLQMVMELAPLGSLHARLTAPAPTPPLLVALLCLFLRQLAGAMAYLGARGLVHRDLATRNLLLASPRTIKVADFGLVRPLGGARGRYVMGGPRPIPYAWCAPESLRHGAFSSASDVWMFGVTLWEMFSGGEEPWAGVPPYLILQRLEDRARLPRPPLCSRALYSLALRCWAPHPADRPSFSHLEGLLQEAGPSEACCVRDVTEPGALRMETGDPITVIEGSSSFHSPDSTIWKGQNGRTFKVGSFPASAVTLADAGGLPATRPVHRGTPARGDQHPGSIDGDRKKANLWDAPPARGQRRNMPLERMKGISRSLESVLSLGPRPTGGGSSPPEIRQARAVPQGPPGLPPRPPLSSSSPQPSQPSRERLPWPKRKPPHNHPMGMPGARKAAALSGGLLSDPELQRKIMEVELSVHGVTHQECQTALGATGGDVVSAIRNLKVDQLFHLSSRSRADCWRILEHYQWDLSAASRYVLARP
Chain of Activin receptor type-2B (Homo sapiens) (Q13705 whole entry): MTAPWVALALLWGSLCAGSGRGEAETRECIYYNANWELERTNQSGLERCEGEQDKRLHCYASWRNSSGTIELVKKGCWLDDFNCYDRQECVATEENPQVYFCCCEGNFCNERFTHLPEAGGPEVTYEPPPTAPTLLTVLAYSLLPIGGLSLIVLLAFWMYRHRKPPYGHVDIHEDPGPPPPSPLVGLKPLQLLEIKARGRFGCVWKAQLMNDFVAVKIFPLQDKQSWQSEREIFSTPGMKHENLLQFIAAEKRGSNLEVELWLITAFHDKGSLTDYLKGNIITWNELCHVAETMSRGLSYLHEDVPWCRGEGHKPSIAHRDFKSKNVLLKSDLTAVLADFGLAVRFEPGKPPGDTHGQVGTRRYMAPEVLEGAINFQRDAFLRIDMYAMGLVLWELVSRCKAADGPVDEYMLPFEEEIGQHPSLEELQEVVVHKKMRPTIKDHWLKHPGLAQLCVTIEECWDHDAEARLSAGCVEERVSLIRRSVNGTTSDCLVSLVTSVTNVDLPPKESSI
Chain of Myosin-IIIa (Homo sapiens) (Q8NEV4 whole entry): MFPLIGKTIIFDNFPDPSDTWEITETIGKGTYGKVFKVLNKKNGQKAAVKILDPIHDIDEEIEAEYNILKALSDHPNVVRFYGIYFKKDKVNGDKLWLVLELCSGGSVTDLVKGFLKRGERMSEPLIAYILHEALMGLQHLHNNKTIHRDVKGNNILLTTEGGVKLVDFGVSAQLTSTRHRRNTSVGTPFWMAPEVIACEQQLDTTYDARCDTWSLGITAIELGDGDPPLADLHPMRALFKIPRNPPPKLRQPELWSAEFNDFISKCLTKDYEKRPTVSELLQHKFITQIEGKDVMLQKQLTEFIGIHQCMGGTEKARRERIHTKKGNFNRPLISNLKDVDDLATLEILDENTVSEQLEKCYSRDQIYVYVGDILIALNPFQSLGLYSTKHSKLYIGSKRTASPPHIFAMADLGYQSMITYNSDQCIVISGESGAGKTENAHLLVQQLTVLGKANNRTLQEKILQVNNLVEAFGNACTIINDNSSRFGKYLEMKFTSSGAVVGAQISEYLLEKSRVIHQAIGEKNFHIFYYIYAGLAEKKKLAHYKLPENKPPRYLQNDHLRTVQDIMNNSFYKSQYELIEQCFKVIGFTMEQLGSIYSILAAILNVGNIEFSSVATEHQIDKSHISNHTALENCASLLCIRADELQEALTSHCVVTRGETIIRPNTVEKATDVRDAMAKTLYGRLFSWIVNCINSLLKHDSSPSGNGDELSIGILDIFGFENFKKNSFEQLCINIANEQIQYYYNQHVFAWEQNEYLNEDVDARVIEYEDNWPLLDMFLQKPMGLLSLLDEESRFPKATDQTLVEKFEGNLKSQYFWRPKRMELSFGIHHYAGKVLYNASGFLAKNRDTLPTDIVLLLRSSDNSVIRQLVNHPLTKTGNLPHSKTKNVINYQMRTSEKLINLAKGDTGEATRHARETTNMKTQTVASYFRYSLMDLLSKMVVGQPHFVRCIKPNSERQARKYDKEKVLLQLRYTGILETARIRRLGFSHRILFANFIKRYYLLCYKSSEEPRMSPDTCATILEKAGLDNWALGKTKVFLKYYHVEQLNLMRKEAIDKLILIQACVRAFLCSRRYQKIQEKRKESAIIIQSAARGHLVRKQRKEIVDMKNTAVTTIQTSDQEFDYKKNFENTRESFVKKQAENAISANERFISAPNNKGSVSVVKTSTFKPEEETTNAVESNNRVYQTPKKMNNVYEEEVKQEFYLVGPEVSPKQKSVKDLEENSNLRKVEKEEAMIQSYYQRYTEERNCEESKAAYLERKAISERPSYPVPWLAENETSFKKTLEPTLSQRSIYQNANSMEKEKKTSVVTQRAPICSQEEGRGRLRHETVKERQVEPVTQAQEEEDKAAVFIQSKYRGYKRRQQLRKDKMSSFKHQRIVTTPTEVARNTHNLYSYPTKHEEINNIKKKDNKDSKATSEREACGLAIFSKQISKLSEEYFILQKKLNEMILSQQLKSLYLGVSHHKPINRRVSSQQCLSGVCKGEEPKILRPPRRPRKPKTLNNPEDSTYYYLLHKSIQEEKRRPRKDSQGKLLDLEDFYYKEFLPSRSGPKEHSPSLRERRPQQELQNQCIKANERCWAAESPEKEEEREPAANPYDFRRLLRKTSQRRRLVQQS
Chain of Tyrosine-protein kinase Fer (Homo sapiens) (P16591 whole entry, looked up): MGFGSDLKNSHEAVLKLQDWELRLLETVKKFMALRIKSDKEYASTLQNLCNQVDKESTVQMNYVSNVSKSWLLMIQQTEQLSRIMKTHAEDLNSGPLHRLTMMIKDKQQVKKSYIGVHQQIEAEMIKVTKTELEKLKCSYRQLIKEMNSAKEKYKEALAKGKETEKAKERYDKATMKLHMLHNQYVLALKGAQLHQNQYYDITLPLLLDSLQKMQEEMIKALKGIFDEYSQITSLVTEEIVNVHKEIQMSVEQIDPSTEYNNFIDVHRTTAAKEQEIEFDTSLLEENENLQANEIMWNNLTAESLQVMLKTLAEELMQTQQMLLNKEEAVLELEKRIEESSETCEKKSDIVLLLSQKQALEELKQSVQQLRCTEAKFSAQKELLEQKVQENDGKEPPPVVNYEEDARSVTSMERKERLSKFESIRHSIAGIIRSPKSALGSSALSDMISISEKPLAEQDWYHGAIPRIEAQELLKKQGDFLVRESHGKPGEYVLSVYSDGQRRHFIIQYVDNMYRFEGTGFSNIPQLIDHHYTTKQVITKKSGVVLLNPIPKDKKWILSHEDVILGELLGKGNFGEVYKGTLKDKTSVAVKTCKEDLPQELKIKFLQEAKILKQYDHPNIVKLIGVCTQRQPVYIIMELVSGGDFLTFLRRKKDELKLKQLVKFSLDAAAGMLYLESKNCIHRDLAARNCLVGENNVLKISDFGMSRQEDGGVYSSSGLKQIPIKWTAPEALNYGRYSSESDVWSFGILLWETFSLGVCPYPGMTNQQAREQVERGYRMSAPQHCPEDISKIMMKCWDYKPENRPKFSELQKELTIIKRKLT
Chain of Mitogen-activated protein kinase kinase kinase 2 (Homo sapiens) (Q9Y2U5 whole entry): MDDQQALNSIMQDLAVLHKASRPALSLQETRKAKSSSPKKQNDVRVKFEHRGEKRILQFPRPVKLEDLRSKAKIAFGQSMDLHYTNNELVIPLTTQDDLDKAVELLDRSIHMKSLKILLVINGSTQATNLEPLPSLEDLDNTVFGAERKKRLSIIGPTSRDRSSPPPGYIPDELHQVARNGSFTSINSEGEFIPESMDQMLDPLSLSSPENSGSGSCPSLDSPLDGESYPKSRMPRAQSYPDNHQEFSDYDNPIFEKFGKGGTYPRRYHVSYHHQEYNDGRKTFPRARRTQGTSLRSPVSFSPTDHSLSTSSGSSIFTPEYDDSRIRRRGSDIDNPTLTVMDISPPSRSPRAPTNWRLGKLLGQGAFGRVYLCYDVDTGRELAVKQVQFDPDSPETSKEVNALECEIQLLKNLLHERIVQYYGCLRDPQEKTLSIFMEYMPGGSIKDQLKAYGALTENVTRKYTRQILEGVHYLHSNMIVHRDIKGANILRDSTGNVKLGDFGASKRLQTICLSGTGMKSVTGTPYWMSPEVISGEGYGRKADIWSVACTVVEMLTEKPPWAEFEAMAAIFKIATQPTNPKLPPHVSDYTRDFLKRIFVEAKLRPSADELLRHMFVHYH
Chain of Fibroblast growth factor receptor 2 (Homo sapiens) (P21802 22-821 limits assumed): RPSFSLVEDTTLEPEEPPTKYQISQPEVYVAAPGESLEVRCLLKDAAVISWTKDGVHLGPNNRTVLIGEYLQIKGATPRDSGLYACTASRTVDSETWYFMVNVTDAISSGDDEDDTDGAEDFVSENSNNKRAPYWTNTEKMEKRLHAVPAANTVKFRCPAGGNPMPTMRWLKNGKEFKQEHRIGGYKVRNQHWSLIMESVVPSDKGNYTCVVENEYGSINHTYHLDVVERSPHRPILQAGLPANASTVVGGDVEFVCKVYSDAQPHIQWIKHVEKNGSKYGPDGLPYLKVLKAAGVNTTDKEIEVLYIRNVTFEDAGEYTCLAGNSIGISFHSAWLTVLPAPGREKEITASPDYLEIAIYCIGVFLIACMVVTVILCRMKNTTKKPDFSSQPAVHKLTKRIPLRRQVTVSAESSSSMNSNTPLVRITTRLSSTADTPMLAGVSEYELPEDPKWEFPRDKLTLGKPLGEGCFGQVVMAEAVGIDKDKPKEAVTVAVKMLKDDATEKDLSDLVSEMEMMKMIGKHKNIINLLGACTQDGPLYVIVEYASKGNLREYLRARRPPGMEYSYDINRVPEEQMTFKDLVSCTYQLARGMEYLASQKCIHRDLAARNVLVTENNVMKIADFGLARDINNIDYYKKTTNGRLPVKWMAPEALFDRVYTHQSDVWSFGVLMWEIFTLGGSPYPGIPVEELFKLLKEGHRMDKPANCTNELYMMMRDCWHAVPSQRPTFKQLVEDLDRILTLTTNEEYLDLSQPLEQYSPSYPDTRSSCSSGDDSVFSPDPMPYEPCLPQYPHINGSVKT

CCS(=O)(=O)c1cc2cc(C[C@](O)(CC(C)(C)c3ccc(F)cc3C(N)=O)C(F)(F)F)[nH]c2cn1
inactive: residual activity [1] 100% | residual activity [2] 100% | residual activity [3] 98% | residual activity [4] 100% | residual activity [5] 77% | residual activity [6] 100% | residual activity [7] 94% | residual activity [8] 100% | residual activity [9] 95% | residual activity [10] 100% | residual activity [11] 92% | residual activity [12] 99% | residual activity [13] 100% | residual activity [14] 100% | residual activity [15] 100% | residual activity [16] 92% | residual activity [17] 83% | residual activity [18] 100% | residual activity [19] 78% | residual activity [20] 100% | residual activity [21] 97% | residual activity [22] 96% | residual activity [23] 100% | residual activity [24] 100% | residual activity [25] 53% | residual activity [26] 100% | residual activity [27] 100% | residual activity [28] 100% | residual activity [29] 100% | residual activity [30] 94% | residual activity [31] 100% | residual activity [32] 100% | residual activity [33] 100% | residual activity [34] 100% | residual activity [35] 80% | residual activity [36] 100% | residual activity [37] 100% | residual activity [38] 83% | residual activity [39] 100% | residual activity [40] 98% | residual activity [41] 80% | residual activity [42] 81% | residual activity [43] 100% | residual activity [44] 100% | residual activity [45] 71% | inhibition [46] 11.7%

CCS(=O)(=O)c1cc2cc(C[C@@](O)(CC(C)(C)c3ccc(F)cc3C(N)=O)C(F)(F)F)[nH]c2cn1
inactive: residual activity [1] 90% | residual activity [2] 99% | residual activity [3] 100% | residual activity [4] 97% | residual activity [5] 85% | residual activity [6] 77% | residual activity [7] 96% | residual activity [8] 100% | residual activity [9] 99% | residual activity [10] 100% | residual activity [11] 84% | residual activity [12] 100% | residual activity [13] 100% | residual activity [14] 82% | residual activity [15] 75% | residual activity [16] 83% | residual activity [17] 69% | residual activity [18] 90% | residual activity [19] 88% | residual activity [20] 72% | residual activity [21] 100% | residual activity [22] 74% | residual activity [23] 95% | residual activity [24] 83% | residual activity [25] 100% | residual activity [26] 100% | residual activity [27] 100% | residual activity [28] 100% | residual activity [29] 100% | residual activity [30] 80% | residual activity [31] 79% | residual activity [32] 88% | residual activity [33] 51% | residual activity [34] 100% | residual activity [35] 69% | residual activity [36] 98% | residual activity [37] 100% | residual activity [38] 90% | residual activity [39] 92% | residual activity [40] 100% | residual activity [41] 100% | residual activity [42] 92% | residual activity [43] 96% | residual activity [44] 90% | residual activity [45] 72% | inhibition [46] 11.7%
